Test results reported in ChEMBL document CHEMBL4371069, “Click chemistry for improvement in selectivity of quinazoline-based kinase inhibitors for mutant epidermal growth factor receptors” (Bioorg Med Chem Lett, 2019).

What was measured:
[1] = system: Epidermal growth factor receptor (Homo sapiens), P00533 [L858R,T790M]; assay: Potency index, ratio of afatinib IC50 to compound IC50 for inhibition of human N-terminal GST-tagged EGFR T790M/L858R double mutant (696 to end residues) expressed in baculovirus infected sf21 cells
[2] = Selectivity index, ratio of IC50 for human C-terminal His6-tagged ERBB2 (676 to end residues) expressed in baculovirus infected sf21 cells to IC50 for human N-terminal GST-tagged EGFR T790M/L858R double mutant (696 to end residues) expressed in baculovirus infected sf21 cells
[3] = target: Epidermal growth factor receptor (Homo sapiens, UniProt P00533); assay type: ADME, cell-based, Sf21
Description: Inhibition of human N-terminal GST-tagged EGFR kinase domain (696 to end residues) expressed in baculovirus infected sf21 cells using poly(Glu, Tyr) 4:1 as substrate

CYP2C8 = target: T1, CYP2C8 (Homo sapiens, UniProt P10632); assay: Inhibition of CYP2C8 in human liver microsomes assessed as residual activity at 10 uM using amiodiaquine as substrate preincubated for 5 mins followed by NADPH addition and measured after 15 mins by LC-MS/MS analysis relative to control; assay type: ADME; settings: probe amiodiaquine, read-out: Activity
T1 sequence (P10632 whole entry): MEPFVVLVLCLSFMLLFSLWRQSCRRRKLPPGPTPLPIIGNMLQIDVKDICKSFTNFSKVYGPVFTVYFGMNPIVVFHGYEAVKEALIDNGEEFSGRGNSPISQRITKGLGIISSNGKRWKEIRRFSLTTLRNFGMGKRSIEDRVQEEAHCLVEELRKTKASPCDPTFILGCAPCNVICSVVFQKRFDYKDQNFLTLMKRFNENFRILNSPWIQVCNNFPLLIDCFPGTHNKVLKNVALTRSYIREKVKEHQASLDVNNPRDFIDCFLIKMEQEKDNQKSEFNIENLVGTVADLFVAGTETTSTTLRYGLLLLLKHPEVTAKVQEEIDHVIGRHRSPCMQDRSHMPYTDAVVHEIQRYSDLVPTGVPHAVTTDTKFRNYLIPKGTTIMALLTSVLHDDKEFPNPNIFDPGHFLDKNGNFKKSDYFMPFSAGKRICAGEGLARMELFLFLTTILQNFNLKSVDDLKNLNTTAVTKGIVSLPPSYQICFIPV

[4] = Selectivity index, ratio of IC50 for human N-terminal GST-tagged EGFR kinase domain (696 to end residues) expressed in baculovirus infected sf21 cells to IC50 for human N-terminal GST-tagged EGFR T790M/L858R double mutant (696 to end residues) expressed in baculovirus infected sf21 cells
A549 = assay: Antiproliferative activity against human A549 cells harboring wild-type EGFR after 72 hrs by EZ-Cytox assay; assay type: ADME, cell-based; settings: A549, 72 h
PC-9 = assay: Potency index, ratio of gefitinib IC50 to compound IC50 for antiproliferative activity against human PC9 cells harboring EGFR exon-19 del mutant; assay type: functional
CYP2C19 = CYP2C19 (Homo sapiens, UniProt P33261); assay: Inhibition of CYP2C19 in human liver microsomes assessed as residual activity at 10 uM using S-mephenytoin as substrate preincubated for 5 mins followed by NADPH addition and measured after 15 mins by LC-MS/MS analysis relative to control; assay type: ADME; settings: probe S-mephenytoin, read-out: Activity
Sequence of CYP2C19 (P33261 whole entry): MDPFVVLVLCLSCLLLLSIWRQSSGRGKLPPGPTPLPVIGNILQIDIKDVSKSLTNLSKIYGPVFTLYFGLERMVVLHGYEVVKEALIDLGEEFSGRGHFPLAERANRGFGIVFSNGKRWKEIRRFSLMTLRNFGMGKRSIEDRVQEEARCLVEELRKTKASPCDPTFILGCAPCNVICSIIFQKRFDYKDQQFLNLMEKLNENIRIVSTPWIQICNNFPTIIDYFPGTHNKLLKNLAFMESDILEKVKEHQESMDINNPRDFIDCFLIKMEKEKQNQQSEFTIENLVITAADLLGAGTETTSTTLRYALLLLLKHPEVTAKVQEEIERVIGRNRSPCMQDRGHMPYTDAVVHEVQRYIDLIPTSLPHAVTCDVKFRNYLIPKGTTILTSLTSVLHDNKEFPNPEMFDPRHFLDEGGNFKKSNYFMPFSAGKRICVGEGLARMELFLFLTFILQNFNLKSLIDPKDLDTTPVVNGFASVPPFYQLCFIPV

Row | SMILES | Ratio IC50 [1] | Ratio IC50 [2] | IC50 [3] [nM] | activity at 0.25 h, 10 µM (CYP2C8) [%] | Ratio IC50 [4] | IC50 (A549) [nM] | Ratio IC50 (PC-9) | activity at 0.25 h, 10 µM (CYP2C19) [%]
1 | C=CC(=O)Nc1cc2c(Nc3ccc(F)c(Cl)c3)ncnc2cc1OCc1cn(Cc2cccc(F)c2)nn1 | 3.5 | 52 | 68 | 35.6 | 17 | 5500 | 6.7 | 53.5
2 | C=CC(=O)Nc1cc2c(Nc3ccc(F)c(Cl)c3)ncnc2cc1OCc1cn(Cc2ccc(Cl)cc2)nn1 | – | – | 62 | 48.7 | – | 2040 | – | 56.4
3 | C=CC(=O)Nc1cc2c(Nc3ccc(F)c(Cl)c3)ncnc2cc1OCc1cn(Cc2ccc(F)cc2)nn1 | – | – | 45 | 36.4 | – | 4310 | – | 51.1
